Test results as given in patent US9937151B2, “Carbapenem antibacterials with gram-negative activity” (priority 2010, dated 2018).
≈ marks a conversion by molar mass, not a printed value.

System: G(−) bacterial strains
Test: Dilution antimicrobial susceptibility tests (MIC, NCCLS agar dilution / broth dilution)
Format: cell-based, Gram-negative organisms
Details: unit assumed
Procedure: The MIC (minimum inhibitory concentration) was determined by the NCCLS (National Committee for Clinical Laboratory Standards) methods 2000. Methods for dilution antimicrobial susceptibility testing for bacteria that growth aerobically (M7-A5, vol. 20, No. 2). The agar dilution method for determining antimicrobial susceptibility was carried out using Mueller-Hinton agar. A final inoculum of 10^4 CFU/spot was applied with an inoculation device. Broth dilution tests were performed with 5×10^5 CFU/well in 96 well plates. The susceptibilities of streptococci were determined by Mueller-Hinton agar supplemented with 5% sheep blood. All assays were run with the indicated control strains, available from the ATCC (American Type Culture Collection, Rockville, Md.).
Abbreviations used in Table 1 are defined as follows: Cf-R: Ceftazidime Resistance, Ci-R: Ciprofloxacin Resistance, Gen-R: Gentamycin Resistance, Imp-R: Imipenem Resistance, Mp-R: Meropenem Resistance, Ofx-R: Ofloxacin Resistance, B+: β-lactamase Production, AmpC: AmpC-lactamase Hyper production, CBPase: Carbapenemase Production.

[1] = strain #1 Acinetobacter calcoaceticus
[2] = strain #2 Acinetobacter baumannii, Cf-R, Ci-R
[3] = strain #3 Acinetobacter baumannii, Cf-R, Ci-R, Mp-I
[4] = strain #4 Acinetobacter baumannii, Cf-R, Imp-I, CBPase
[5] = strain #7 Enterobacter aerogenes
[6] = strain #8 Enterobacter cloacae, Cf-R, B+
[7] = strain #9 Enterobacter cloacae, Cf-R
[8] = strain #10 Escherichia coli, Ci-R
[9] = strain #11 Escherichia coli, Ci-R, AmpC
[10] = strain #15 Klebsiella pneumoniae
[11] = strain #16 Moraxella catarrhalis
[12] = strain #21 Providencia rettgeri
[13] = strain #22 Salmonella typhimurium
[14] = strain #25 Shigella dysenteriae
[15] = strain #28 Stenotrophomonas maltophilia
[16] = strain #29 Pseudomonas aeruginosa
[17] = strain #30 Pseudomonas aeruginosa
[18] = strain #31 Pseudomonas aeruginosa, Ofx-R
[19] = strain #32 Pseudomonas aeruginosa, Cf-R
[20] = strain #33 Pseudomonas aeruginosa, Ci-R
[21] = strain #34 Pseudomonas aeruginosa, Gen-R
[22] = strain #35 Pseudomonas aeruginosa, Ip-R
[23] = strain #36 Pseudomonas aeruginosa, Cf-R, Ci-R, Mp-R

SMILES: C[C@@H](O)C1C(=O)N2C(C(=O)O)=C(CN3CC[C@H](C(=O)NS(N)(=O)=O)C3)[C@H](C)C12 (stereo partly drawn) [Compound 19]
- MIC [1]: 0.5 µg/mL (≈ 1.2 µM)
- MIC [2]: 0.5 µg/mL (≈ 1.2 µM)
- MIC [3]: 2 µg/mL (≈ 4.8 µM)
- MIC [4]: 1 µg/mL (≈ 2.4 µM)
- MIC (strain #5 Citrobacter diversus): 0.25 µg/mL (≈ 0.6 µM)
- MIC (strain #6 Citrobacter freundii): 0.25 µg/mL (≈ 0.6 µM)
- MIC [5]: 1 µg/mL (≈ 2.4 µM)
- MIC [6]: 0.25 µg/mL (≈ 0.6 µM)
- MIC [7]: 0.5 µg/mL (≈ 1.2 µM)
- MIC [8]: 0.25 µg/mL (≈ 0.6 µM)
- MIC [9]: 0.25 µg/mL (≈ 0.6 µM)
- MIC (strain #12 Escherichia coli): 0.25 µg/mL (≈ 0.6 µM)
- MIC (strain #13 Escherichia coli): 0.25 µg/mL (≈ 0.6 µM)
- MIC (strain #14 Klebsiella oxytoca): 0.5 µg/mL (≈ 1.2 µM)
- MIC [10]: 0.5 µg/mL (≈ 1.2 µM)
- MIC [11]: ≤ 0.008 µg/mL
- MIC (strain #17 Morganella Morganii): 4 µg/mL (≈ 9.6 µM)
- MIC (strain #18 Morganella Morganii): 2 µg/mL (≈ 4.8 µM)
- MIC (strain #19 Proteus vulgaris): 1 µg/mL (≈ 2.4 µM)
- MIC (strain #20 Proteus mirabilis): 0.25 µg/mL (≈ 0.6 µM)
- MIC [12]: 1 µg/mL (≈ 2.4 µM)
- MIC [13]: 0.25 µg/mL (≈ 0.6 µM)
- MIC (strain #23 Serratia marcescens): 1 µg/mL (≈ 2.4 µM)
- MIC (strain #24 Serratia marcescens): 1 µg/mL (≈ 2.4 µM)
- MIC [14]: 0.25 µg/mL (≈ 0.6 µM)
- MIC (strain #26 Shigella sonnei): 0.25 µg/mL (≈ 0.6 µM)
- MIC (strain #27 Shigella flexneri): 0.25 µg/mL (≈ 0.6 µM)
- MIC [15]: 0.25 µg/mL (≈ 0.6 µM)
- MIC [16]: 4 µg/mL (≈ 9.6 µM)
- MIC [17]: 4 µg/mL (≈ 9.6 µM)
- MIC [18]: 1 µg/mL (≈ 2.4 µM)
- MIC [19]: 4 µg/mL (≈ 9.6 µM)
- MIC [20]: 4 µg/mL (≈ 9.6 µM)
- MIC [21]: 4 µg/mL (≈ 9.6 µM)
- MIC [22]: 8 µg/mL (≈ 19.2 µM)
- MIC [23]: 32 µg/mL (≈ 76.8 µM)

SMILES: C[C@@H](O)C1C(=O)N2C(C(=O)O)=C(CN3CC[C@H](N)C3)[C@H](C)C12 (stereo partly drawn) [Compound 27]
- MIC [1]: 0.25 µg/mL (≈ 0.808 µM)
- MIC [2]: 0.5 µg/mL (≈ 1.62 µM)
- MIC [3]: 2 µg/mL (≈ 6.46 µM)
- MIC [4]: 1 µg/mL (≈ 3.23 µM)
- MIC (strain #5 Citrobacter diversus): 0.25 µg/mL (≈ 0.808 µM)
- MIC (strain #6 Citrobacter freundii): 0.25 µg/mL (≈ 0.808 µM)
- MIC [5]: 1 µg/mL (≈ 3.23 µM)
- MIC [6]: 0.25 µg/mL (≈ 0.808 µM)
- MIC [7]: 0.5 µg/mL (≈ 1.62 µM)
- MIC [8]: 0.25 µg/mL (≈ 0.808 µM)
- MIC [9]: 0.25 µg/mL (≈ 0.808 µM)
- MIC (strain #12 Escherichia coli): 0.25 µg/mL (≈ 0.808 µM)
- MIC (strain #13 Escherichia coli): 0.25 µg/mL (≈ 0.808 µM)
- MIC (strain #14 Klebsiella oxytoca): 0.5 µg/mL (≈ 1.62 µM)
- MIC [10]: 0.5 µg/mL (≈ 1.62 µM)
- MIC [11]: ≤ 0.008 µg/mL
- MIC (strain #17 Morganella Morganii): 4 µg/mL (≈ 12.9 µM)
- MIC (strain #18 Morganella Morganii): 2 µg/mL (≈ 6.46 µM)
- MIC (strain #19 Proteus vulgaris): 1 µg/mL (≈ 3.23 µM)
- MIC (strain #20 Proteus mirabilis): 0.25 µg/mL (≈ 0.808 µM)
- MIC [12]: 1 µg/mL (≈ 3.23 µM)
- MIC [13]: 0.25 µg/mL (≈ 0.808 µM)
- MIC (strain #23 Serratia marcescens): 0.5 µg/mL (≈ 1.62 µM)
- MIC (strain #24 Serratia marcescens): 1 µg/mL (≈ 3.23 µM)
- MIC [14]: 0.5 µg/mL (≈ 1.62 µM)
- MIC (strain #26 Shigella sonnei): 0.25 µg/mL (≈ 0.808 µM)
- MIC (strain #27 Shigella flexneri): 0.13 µg/mL (≈ 0.42 µM)
- MIC [15]: 0.13 µg/mL (≈ 0.42 µM)
- MIC [16]: 2 µg/mL (≈ 6.46 µM)
- MIC [17]: 2 µg/mL (≈ 6.46 µM)
- MIC [18]: 0.5 µg/mL (≈ 1.62 µM)
- MIC [19]: 2 µg/mL (≈ 6.46 µM)
- MIC [20]: 2 µg/mL (≈ 6.46 µM)
- MIC [21]: 2 µg/mL (≈ 6.46 µM)
- MIC [22]: 4 µg/mL (≈ 12.9 µM)
- MIC [23]: 8 µg/mL (≈ 25.9 µM)

SMILES: CC(=O)N[C@H]1CCN(CC2=C(C(=O)O)N3C(=O)C([C@@H](C)O)C3[C@H]2C)C1 (stereo partly drawn) [Compound 32]
- MIC [1]: 2 µg/mL (≈ 5.69 µM)
- MIC [2]: 2 µg/mL (≈ 5.69 µM)
- MIC [3]: 4 µg/mL (≈ 11.4 µM)
- MIC [4]: 2 µg/mL (≈ 5.69 µM)
- MIC (strain #5 Citrobacter diversus): 1 µg/mL (≈ 2.85 µM)
- MIC (strain #6 Citrobacter freundii): 1 µg/mL (≈ 2.85 µM)
- MIC [5]: 4 µg/mL (≈ 11.4 µM)
- MIC [6]: 1 µg/mL (≈ 2.85 µM)
- MIC [7]: 2 µg/mL (≈ 5.69 µM)
- MIC [8]: 1 µg/mL (≈ 2.85 µM)
- MIC [9]: 0.5 µg/mL (≈ 1.42 µM)
- MIC (strain #12 Escherichia coli): 1 µg/mL (≈ 2.85 µM)
- MIC (strain #13 Escherichia coli): 1 µg/mL (≈ 2.85 µM)
- MIC (strain #14 Klebsiella oxytoca): 2 µg/mL (≈ 5.69 µM)
- MIC [10]: 2 µg/mL (≈ 5.69 µM)
- MIC [11]: 0.016 µg/mL (≈ 0.0455 µM)
- MIC (strain #17 Morganella Morganii): 8 µg/mL (≈ 22.8 µM)
- MIC (strain #18 Morganella Morganii): 4 µg/mL (≈ 11.4 µM)
- MIC (strain #19 Proteus vulgaris): 4 µg/mL (≈ 11.4 µM)
- MIC (strain #20 Proteus mirabilis): 1 µg/mL (≈ 2.85 µM)
- MIC [12]: 4 µg/mL (≈ 11.4 µM)
- MIC [13]: 1 µg/mL (≈ 2.85 µM)
- MIC (strain #23 Serratia marcescens): 2 µg/mL (≈ 5.69 µM)
- MIC (strain #24 Serratia marcescens): 2 µg/mL (≈ 5.69 µM)
- MIC [14]: 1 µg/mL (≈ 2.85 µM)
- MIC (strain #26 Shigella sonnei): 1 µg/mL (≈ 2.85 µM)
- MIC (strain #27 Shigella flexneri): 0.5 µg/mL (≈ 1.42 µM)
- MIC [15]: 1 µg/mL (≈ 2.85 µM)
- MIC [16]: 16 µg/mL (≈ 45.5 µM)
- MIC [17]: 16 µg/mL (≈ 45.5 µM)
- MIC [18]: 4 µg/mL (≈ 11.4 µM)
- MIC [19]: 16 µg/mL (≈ 45.5 µM)
- MIC [20]: 16 µg/mL (≈ 45.5 µM)
- MIC [21]: 16 µg/mL (≈ 45.5 µM)
- MIC [22]: 32 µg/mL (≈ 91.1 µM)
- MIC [23]: > 32 µg/mL

SMILES: C[C@@H](O)C1C(=O)N2C(C(=O)O)=C(CN3CC[C@H](NC(=O)C(F)(F)F)C3)[C@H](C)C12 (stereo partly drawn) [Compound 37]
- MIC [1]: 2 µg/mL (≈ 4.93 µM)
- MIC [2]: 4 µg/mL (≈ 9.87 µM)
- MIC [3]: 8 µg/mL (≈ 19.7 µM)
- MIC [4]: 4 µg/mL (≈ 9.87 µM)
- MIC (strain #5 Citrobacter diversus): 0.5 µg/mL (≈ 1.23 µM)
- MIC (strain #6 Citrobacter freundii): 0.5 µg/mL (≈ 1.23 µM)
- MIC [5]: 2 µg/mL (≈ 4.93 µM)
- MIC [6]: 0.5 µg/mL (≈ 1.23 µM)
- MIC [7]: 1 µg/mL (≈ 2.47 µM)
- MIC [8]: 0.5 µg/mL (≈ 1.23 µM)
- MIC [9]: 0.5 µg/mL (≈ 1.23 µM)
- MIC (strain #12 Escherichia coli): 0.5 µg/mL (≈ 1.23 µM)
- MIC (strain #13 Escherichia coli): 0.5 µg/mL (≈ 1.23 µM)
- MIC (strain #14 Klebsiella oxytoca): 0.5 µg/mL (≈ 1.23 µM)
- MIC [10]: 1 µg/mL (≈ 2.47 µM)
- MIC [11]: ≤ 0.008 µg/mL
- MIC (strain #17 Morganella Morganii): 2 µg/mL (≈ 4.93 µM)
- MIC (strain #18 Morganella Morganii): 2 µg/mL (≈ 4.93 µM)
- MIC (strain #19 Proteus vulgaris): 1 µg/mL (≈ 2.47 µM)
- MIC (strain #20 Proteus mirabilis): 0.5 µg/mL (≈ 1.23 µM)
- MIC [12]: 1 µg/mL (≈ 2.47 µM)
- MIC [13]: 0.5 µg/mL (≈ 1.23 µM)
- MIC (strain #23 Serratia marcescens): 1 µg/mL (≈ 2.47 µM)
- MIC (strain #24 Serratia marcescens): 2 µg/mL (≈ 4.93 µM)
- MIC [14]: 0.5 µg/mL (≈ 1.23 µM)
- MIC (strain #26 Shigella sonnei): 0.5 µg/mL (≈ 1.23 µM)
- MIC (strain #27 Shigella flexneri): 0.25 µg/mL (≈ 0.617 µM)
- MIC [15]: 1 µg/mL (≈ 2.47 µM)
- MIC [16]: 8 µg/mL (≈ 19.7 µM)
- MIC [17]: 8 µg/mL (≈ 19.7 µM)
- MIC [18]: 4 µg/mL (≈ 9.87 µM)
- MIC [19]: 8 µg/mL (≈ 19.7 µM)
- MIC [20]: 8 µg/mL (≈ 19.7 µM)
- MIC [21]: 8 µg/mL (≈ 19.7 µM)
- MIC [22]: 16 µg/mL (≈ 39.5 µM)
- MIC [23]: 32 µg/mL (≈ 78.9 µM)
